Experiments:
[1] = Drug uptake in mouse brain up to 20 mg/kg/day, po after 30 to 60 mins by LC/MS analysis relative to plasma; assay type: ADME, organism-based
[2] = Drug uptake in mouse brain at 5 mg/kg/day, po after 30 to 60 mins by LC/MS analysis; assay type: ADME, organism-based; details: in vivo, read-out: Drug uptake
[3] = Drug uptake in mouse CSF up to 20 mg/kg/day, po after 30 to 60 mins by LC/MS analysis relative to brain; assay type: ADME, organism-based, Cerebrospinal fluid; details: in vivo
[4] = Ratio of drug level in plasma to CSF in Alzheimer's disease patient at 50 to 125 mg, po qd for 4 weeks measured 23 to 28 hrs post last dose by LC/MS analysis; assay type: ADME, organism-based; details: human, in vivo
[5] = test system: Mus musculus; assay: In vivo target occupancy at CK1epsilon in C57BL/6J mouse CNS at 10 mg/kg, sc; assay type: functional
[6] = test system: Mus musculus; assay: In vivo target occupancy at CK1delta in C57BL/6J mouse CNS at 10 mg/kg, sc; assay type: functional
[7] = Unbound Cmax in C57BL/6J mouse brain at 10 mg/kg, sc; assay type: ADME, organism-based; details: in vivo
[8] = test system: MDR1; assay: Efflux ratio of apparent permeability in MDCK cells expressing human MDR1; assay type: ADME, cell-based, Canis lupus familiaris; details: dog
[9] = Ratio of drug level in brain to plasma in C57BL6 mouse at 30 mg/kg, po after 1 hr by LC/MS analysis; assay type: ADME, organism-based; details: read-out: BPR
[10] = Efflux ratio of apparent permeability in human Caco2 cells by HPLC-MS/MS analysis; assay type: ADME, cell-based; details: Caco-2
[11] = Ratio of drug level in brain to plasma in Sprague-Dawley rat at 5 mg/kg, po after 3 hrs by LC-MS/MS analysis; assay type: ADME, organism-based; details: read-out: BPR
[12] = test system: MDR1; assay: Efflux ratio of apparent permeability in MDCK2-MDR1; assay type: ADME, cell-based, Canis lupus familiaris; details: dog, MDCK-MDR1
[13] = Ratio of drug level in brain to plasma in rat; assay type: ADME; details: read-out: BPR
[14] = test system: Rattus norvegicus; assay: In vivo inhibition of Plk2-mediated phosphorylation of alpha-synuclein in Sprague-Dawley rat brain assessed as reduction in pS129-alpha-synuclein levels at 100 mg/kg, po administered as single dose after 6 hrs by sandwich ELISA relative to control; assay type: functional
[15] = test system: Rattus norvegicus; assay: In vivo inhibition of Plk2-mediated phosphorylation of alpha-synuclein in Sprague-Dawley rat brain assessed as reduction in pS129-alpha-synuclein levels at 200 mg/kg, po administered as single dose after 6 hrs by sandwich ELISA relative to control; assay type: functional
[16] = Ratio of drug level in Sprague-Dawley rat brain to plasma at 200 mg/kg, po administered as single dose after 6 hrs by LC-MS/MS analysis; assay type: ADME, organism-based; details: read-out: BPR
[17] = Ratio of drug level in Sprague-Dawley rat brain to plasma at 100 mg/kg, po administered as single dose after 6 hrs by LC-MS/MS analysis; assay type: ADME, organism-based; details: read-out: BPR
[18] = Ratio of AUC (0 to 3 hrs) in FVB mouse brain to plasma at 1 mg/kg, iv by LC-MS/MS analysis; assay type: ADME, organism-based; details: read-out: Ratio AUC

Compound `CN1CCN(CCOc2cc(OC3CCOCC3)c3c(Nc4c(Cl)ccc5c4OCO5)ncnc3c2)CC1` [SARACATINIB] has a Drug uptake [1] of 50%, a concentration [2] of 50 nM and a Drug uptake [3] of 35%. The Ratio [4] was 0.4.

In the case of `Nc1nccc(-c2c(-c3ccc(F)cc3)ncn2C2CCN(Cc3ccon3)CC2)n1`, the Occ [5] is reported as 58%, the Occ [6] is reported as 88% and the fCmax [7] is reported as 117 nM. For the same compound, the efflux ratio [8] was 3.2.

For `Cc1ccc(C(=O)NNC(=O)c2c(C)cccc2Cl)cc1C#Cc1cnc2ccccc2c1` [VODOBATINIB], the Kp at 1 h [9] was 0.4.

`CN1CCN(c2cc(-c3ccncc3)c(-c3ccc4ccccc4c3)nn2)CC1` [MW-150] gave an efflux ratio [10] of 0.9 and a Kp at 3 h [11] of over 0.9.

For `CN1C(=O)[C@@H](NC(=O)c2nnc(Cc3ccccc3)o2)COc2cccnc21`, the efflux ratio [12] was under 2.

`CN(CCNc1ccn2ncc(-c3ccc(C(N)=O)cc3)c2n1)C(=O)OC(C)(C)C` gave a Kp [13] of 0.007.

For `COc1ncccc1-c1cnn2ccc(N3CCN(C(=O)OC(C)C)CC3)nc12`, the Kp [13] was over 2.

With `CC[C@@]12COCCN1c1nc(-n3ccnc3-c3ccccc3)ncc1N(C)C2=O` the inhibition in vivo at 100 mg/kg [14] was 34.5%, the inhibition in vivo at 200 mg/kg [15] was 41.4% and the Kp at 6 h [16] was 0.46. For the same compound, the Kp at 6 h [17] was 0.42 and the Kp [18] was 0.3.

Reference: ChEMBL document CHEMBL4118171, “Brain penetrant kinase inhibitors: Learning from kinase neuroscience discovery” (Bioorg Med Chem Lett, 2018)
